Measurements reported in US11578087B2, “Oxaborole esters and uses thereof” (priority 2016, dated 2023).

Tests used:
[1] = system: IL3000 T. congolense (drug sensitive) strain; assay: In vitro Alamar Blue 72 h drug sensitivity assay for T. congolense; assay type: cell-based, Trypanosoma congolense; details: Trypanosoma congolense, 72 h, bloodstream form, 69 h + 3 h Resazurin, 34° C., read-out: IC50: I Org. Growth T. congolense 3 d
Procedure: Example 252. In Vitro Alamar Blue 72 h Drug Sensitivity Assay for T. congolense
Compounds were tested in vitro for chemotherapeutic potency against the IL3000 T. congolense (drug sensitive) strain, using the Alamar Blue assay with several modifications. Test compounds were prepared as 10 mg/mL DMSO stocks for each assay run. Compounds were assayed in at least three separate, independent test runs and an 11-point dilution curve was used to determine the IC50 values. Bloodstream form trypanosomes were supported in HMI media containing 20% bovine serum and were incubated with test compounds for 69 h at 34° C. in a humidified atmosphere containing 5% CO2. Thereafter, 10 μL of Resazurin dye (12.5 mg in 100 mL of phosphate buffered saline, Sigma-Aldrich, Buchs, Switzerland) were added for an additional 3 h. Plates were then read using a fluorescent plate reader (Spectramax, Gemini XS, Bucher Biotec, Basel, Switzerland) using an excitation wavelength of 536 nm and an emission wavelength of 588 nm. Data points were averaged to generate sigmoidal dose-response curves and IC50 values were determined using Softmax Pro 5.2 software.

[2] = system: T. cruzi amastigote (Td Tomato-modified) in Vero cells; assay: In vitro IC50 measurement of T. cruzi amastigote killing using Td Tomato-modified T. cruzi; assay type: cell-based; details: Trypanosoma cruzi, 72 h, fluorescence, read-out: IC50: I Org. amastigote Growth T. cruzi 3 d
Procedure: Example 254. In Vitro IC50 Measurement of T. cruzi Amastigote Killing Using Td Tomato-Modified T. cruzi
The T. cruzi parasites used in this assay were genetically modified to express Td Tomato fluorescent protein. Vero cells (African green monkey kidney epithelial cells) were harvested from continuous cultures using trypsin and added to the inner 60 wells of 96-well Greiner Bio One plates (plate catalog #655090) at 200 ul/well of […]. Cells were allowed to adhere for 1 h before infection with T. cruzi. T. cruzi for infection were harvested from previously-infected Vero cells, washed, pelleted and resuspended at 5×10^6/mL. 50 uL of parasites were added to each well containing Vero cells. Compounds were prepared from 5 mM stock concentrations in DMSO to final concentrations in wells ranging from 5 uM to 5 nM. Wells were provided for negative controls, lacking compounds. Plates were placed into a 37° C. incubator for 20 min, then a “Day 0” reading was taken on a Synergy H4 plate reader to record initial fluorescence levels, at 544 (excitation) and 612 nm (emission). 96-well plates were placed in Tupperware containers with wet paper towels and incubated at 37° C. incubator for 72 h. After 72 h plates were reread (Day 3 reading) and data analyzed using Excel and/or Graphpad software. Day 0 fluorescence was subtracted from Day 3 to remove input parasite fluorescence. Growth curves are generated and 50% and 90% inhibitory concentrations are determined by nonlinear regression analysis.

Row | Structure (SMILES) | IC50 [1] [µM] | IC50 [2] [µM]
1 | Cc1c(C(=O)NC2(C(=O)OCC3CCCC3)COC2)ccc2c1B(O)OC2 [Example 6-224, Cyclopentylmethyl 3-(1-hydroxy-7-methyl-1,3-dihydrobenzo[c][1,2]oxaborole-6-carboxamido)oxetane-3-carboxylate] | 0.00051 to 0.00999 | ≤ 0.02
2 | O=C(N[C@@H](CO)C(=O)OCc1ccccc1)c1ccc2c(c1)B(O)OC2 [Example 6-007, Benzyl (1-hydroxy-1,3-dihydrobenzo[c][1,2]oxaborole-6-carbonyl)-L-serinate] | 0.01 to 5 | ≥ 1
3 | CC(C)(C)[C@H](NC(=O)c1ccc2c(c1)B(O)OC2)C(=O)OCc1ccccc1 [Example 6-017, Benzyl (S)-2-(1-hydroxy-1,3-dihydrobenzo[c][1,2]oxaborole-6-carboxamido)-3,3-dimethylbutanoate] | 0.01 to 5 | ≥ 1
4 | Cc1c(C(=O)N[C@H](C(=O)OCCN2CC3(COC3)C2)C(C)C)ccc2c1B(O)OC2 [Example 6-218, 2-(2-oxa-6-azaspiro[3.3]heptan-6-yl)ethyl (1-hydroxy-7-methyl-1,3-dihydrobenzo[c][1,2]oxaborole-6-carbonyl)-L-valinate] | 0.01 to 5 | ≥ 1
5 | Cc1c(C(=O)N[C@H](C(=O)OCc2ccc(Cl)c(OCCN3CCOCC3)c2)C(C)C)ccc2c1B(O)OC2 [Example 6-167, 4-Chloro-3-(2-morpholinoethoxy)benzyl (1-hydroxy-7-methyl-1,3-dihydrobenzo[c][1,2]oxaborole-6-carbonyl)-L-valinate] | < 0.0005 | ≤ 0.02
6 | Cc1c(C(=O)N[C@H](C(=O)OCC2CCOCC2)C(C)C)ccc2c1B(O)OC2 [Example 6-172, (tetrahydro-2H-pyran-4-yl)methyl (1-hydroxy-7-methyl-1,3-dihydrobenzo[c][1,2]oxaborole-6-carbonyl)-L-valinate] | < 0.0005 | ≤ 0.02
7 | Cc1c(C(=O)N[C@H](C(=O)OCc2ccc(S(=O)(=O)C(C)C)cc2)C(C)C)ccc2c1B(O)OC2 [Example 6-092, 4-(Isopropylsulfonyl)benzyl (1-hydroxy-7-methyl-1,3-dihydrobenzo[c][1,2]oxaborole-6-carbonyl)-L-valinate] | < 0.0005 | 0.021 to 0.999
8 | Cc1c(C(=O)N[C@H](C(=O)OCc2cccc(CN3CCN(C)CC3)c2)C(C)C)ccc2c1B(O)OC2 [Example 6-082, 3-((4-Methylpiperazin-1-yl)methyl)benzyl (1-hydroxy-7-methyl-1,3-dihydrobenzo[c][1,2]oxaborole-6-carbonyl)-L-valinate] | 0.00051 to 0.00999 | 0.021 to 0.999
9 | O=C(N[C@@H](Cc1ccccc1)C(=O)OCc1ccccc1)c1ccc2c(c1)B(O)OC2 [Example 6-009, Benzyl (1-hydroxy-1,3-dihydrobenzo[c][1,2]oxaborole-6-carbonyl)-L-phenylalaninate] | 0.00051 to 0.00999 | ≥ 1
10 | Cc1c(C(=O)N[C@H](C(=O)OC[C@@H]2COC(C)(C)O2)C(C)C)ccc2c1B(O)OC2 [Example 6-145, ((S)-2,2-Dimethyl-1,3-dioxolan-4-yl)methyl (1-hydroxy-7-methyl-1,3-dihydrobenzo[c][1,2]oxaborole-6-carbonyl)-L-valinate] | 0.00051 to 0.00999 | ≤ 0.02
11 | CCS(=O)(=O)c1ccc(COC(=O)[C@@H](NC(=O)c2ccc3c(c2C)B(O)OC3)C(C)C)cc1 [Example 6-093, 4-(Ethylsulfonyl)benzyl (1-hydroxy-7-methyl-1,3-dihydrobenzo[c][1,2]oxaborole-6-carbonyl)-L-valinate] | 0.00051 to 0.00999 | 0.021 to 0.999
12 | Cc1c(C(=O)N[C@H](C(=O)OCc2ccc(OCCN3CCOCC3)cc2)C(C)C)ccc2c1B(O)OC2 [Example 6-247, 4-(2-Morpholinoethoxy)benzyl(1-hydroxy-7-methyl-1,3-dihydrobenzo[c][1,2]oxaborole-6-carbonyl)-L-valinate] | 0.00051 to 0.00999 | ≤ 0.02
13 | Cc1c(C(=O)N[C@H](C(=O)OC2CCOCC2)C(C)C)ccc2c1B(O)OC2 [Example 6-134, Tetrahydro-2H-pyran-4-yl (1-hydroxy-7-methyl-1,3-dihydrobenzo[c][1,2]oxaborole-6-carbonyl)-L-valinate] | < 0.0005 | ≤ 0.02
14 | Cc1c(C(=O)N[C@H](C(=O)OCc2cccc(CN(C)C)c2)C(C)C)ccc2c1B(O)OC2 [Example 6-081, 3-((Dimethylamino)methyl)benzyl (1-hydroxy-7-methyl-1,3-dihydrobenzo[c][1,2]oxaborole-6-carbonyl)-L-valinate] | < 0.0005 | 0.021 to 0.999
15 | Cc1c(C(=O)N[C@H](C(=O)OCc2ccc(F)c(OCCN3CCCC3)c2)C(C)C)ccc2c1B(O)OC2 [Example 6-245, 4-Fluoro-3-(2-(pyrrolidin-1-yl)ethoxy)benzyl (1-hydroxy-7-methyl-1,3-dihydrobenzo[c][1,2]oxaborole-6-carbonyl)-L-valinate] | 0.00051 to 0.00999 | 0.021 to 0.999
16 | Cc1c(C(=O)N[C@H](C(=O)OCc2ncc[nH]2)C(C)C)ccc2c1B(O)OC2 [Example 6-143, (1H-Imidazol-2-yl)methyl (1-hydroxy-7-methyl-1,3-dihydrobenzo[c][1,2]oxaborole-6-carbonyl)-L-valinate] | 0.01 to 5 | ≥ 1
17 | Cc1c(C(=O)N[C@H](C(=O)OCc2cncs2)C(C)C)ccc2c1B(O)OC2 [Example 6-120, Thiazol-5-ylmethyl (1-hydroxy-7-methyl-1,3-dihydrobenzo[c][1,2]oxaborole-6-carbonyl)-L-valinate] | 0.00051 to 0.00999 | 0.021 to 0.999
18 | Cc1c(C(=O)NC2(C(=O)OCc3ccc(F)cc3)COC2)ccc2c1B(O)OC2 [Example 6-221, 4-fluorobenzyl 3-(1-hydroxy-7-methyl-1,3-dihydrobenzo[c][1,2]oxaborole-6-carboxamido)oxetane-3-carboxylate] | 0.00051 to 0.00999 | 0.021 to 0.999
19 | Cc1c(C(=O)N[C@H](C(=O)OC(C)(C)C)C(C)C)ccc2c1B(O)OC2 [Example 6-188, Tert-butyl (1-hydroxy-7-methyl-1,3-dihydrobenzo[c][1,2]oxaborole-6-carbonyl)-L-valinate] | 0.01 to 5 | ≥ 1
20 | Cc1c(C(=O)N[C@H](C(=O)OC[C@H]2CCCO2)C(C)C)ccc2c1B(O)OC2 [Example 6-215, ((R)-tetrahydrofuran-2-yl)methyl (1-hydroxy-7-methyl-1,3-dihydrobenzo[c][1,2]oxaborole-6-carbonyl)-L-valinate] | < 0.0005 | ≤ 0.02
21 | Cc1c(C(=O)N[C@H](C(=O)OCC2(F)CCOCC2)C(C)C)ccc2c1B(O)OC2 [Example 6-226, (4-fluorotetrahydro-2H-pyran-4-yl)methyl (1-hydroxy-7-methyl-1,3-dihydrobenzo[c][1,2]oxaborole-6-carbonyl)-L-valinate] | < 0.0005 | ≤ 0.02
22 | Cc1c(C(=O)N[C@H](C(=O)OCc2cscn2)C(C)C)ccc2c1B(O)OC2 [Example 6-128, Thiazol-4-ylmethyl (1-hydroxy-7-methyl-1,3-dihydrobenzo[c][1,2]oxaborole-6-carbonyl)-L-valinate] | < 0.0005 | 0.021 to 0.999
23 | CC(C)[C@H](NC(=O)c1ccc2c(c1C(F)(F)F)B(O)OC2)C(=O)OCc1ccccc1 [Example 6-071, Benzyl (1-hydroxy-7-(trifluoromethyl)-1,3-dihydrobenzo[c][1,2]oxaborole-6-carbonyl)-L-valinate] | 0.01 to 5 | 0.021 to 0.999
24 | Cc1c(C(=O)N[C@H](C(=O)OC(C(F)(F)F)C(F)(F)F)C(C)C)ccc2c1B(O)OC2 [Example 6-156, 1,1,1,3,3,3-Hexafluoropropan-2-yl (1-hydroxy-7-methyl-1,3-dihydrobenzo[c][1,2]oxaborole-6-carbonyl)-L-valinate] | 0.01 to 5 | ≥ 1
25 | Cc1c(C(=O)N[C@H](C(=O)OCCC(C)(C)O)C(C)C)ccc2c1B(O)OC2 [Example 6-209, 3-hydroxy-3-methylbutyl (1-hydroxy-7-methyl-1,3-dihydrobenzo[c][1,2]oxaborole-6-carbonyl)-L-valinate] | 0.00051 to 0.00999 | 0.021 to 0.999
26 | Cc1c(C(=O)N[C@H](C(=O)OCc2cccc(N3CCNCC3)c2)C(C)C)ccc2c1B(O)OC2 [Example 6-126, 3-(Piperazin-1-yl)benzyl (1-hydroxy-7-methyl-1,3-dihydrobenzo[c][1,2]oxaborole-6-carbonyl)-L-valinate] | 0.00051 to 0.00999 | ≥ 1
